Laboratory results taken from ChEMBL document CHEMBL1156624, “A click chemistry approach to pleuromutilin conjugates with nucleosides or acyclic nucleoside derivatives and their binding to the bacterial ribosome” (J Med Chem, 2008).

Experiments:
Escherichia coli [1] = experiment: Binding affinity to Escherichia coli MRE600 ribosome assessed as protection against N1-cyclohexyl-N3-(2-morpholino)ethylcarbodiimide p-toluenesulfonate-induced modifications at nucleotide U2506 in peptidyl transferase center of 23S rRNA at 5 uM by chemical footprinting relative to control
Escherichia coli [2] = experiment: Binding affinity to Escherichia coli MRE600 ribosome assessed as protection against N1-cyclohexyl-N3-(2-morpholino)ethylcarbodiimide p-toluenesulfonate-induced modifications at nucleotide U2506 in peptidyl transferase center of 23S rRNA at 50 uM by chemical footprinting relative to control
Escherichia coli [3] = experiment: Binding affinity to Escherichia coli MRE600 ribosome assessed as protection against N1-cyclohexyl-N3-(2-morpholino)ethylcarbodiimide p-toluenesulfonate-induced modifications at nucleotide U2585 in peptidyl transferase center of 23S rRNA at 5 uM by chemical footprinting relative to control
Escherichia coli [4] = experiment: Binding affinity to Escherichia coli MRE600 ribosome assessed as protection against N1-cyclohexyl-N3-(2-morpholino)ethylcarbodiimide p-toluenesulfonate-induced modifications at nucleotide U2585 in peptidyl transferase center of 23S rRNA at 50 uM by chemical footprinting relative to control

SMILES	Activity (Escherichia coli [1])	Activity (Escherichia coli [2])	Activity (Escherichia coli [3])	Activity (Escherichia coli [4])
C=C[C@]1(C)C[C@@H](OC(=O)Cn2cc(CCCn3cnc4c(N)ncnc43)nn2)[C@]2(C)[C@H](C)CC[C@]3(CCC(=O)[C@@H]32)[C@@H](C)[C@@H]1O	0.17	0.06	0.33	0.22
C=C[C@]1(C)C[C@@H](OC(=O)CSCCN(CC)CC)[C@]2(C)[C@H](C)CC[C@]3(CCC(=O)[C@H]32)[C@@H](C)[C@@H]1O	0.1	0.05	0.59	0.58
C=C[C@]1(C)C[C@@H](OC(=O)CO)[C@]2(C)[C@H](C)CC[C@]3(CCC(=O)[C@@H]32)[C@@H](C)[C@@H]1O	0.42	0.1	0.99	0.98
C=C[C@]1(C)C[C@@H](OC(=O)Cn2cc([C@]3(O)[C@H](O)[C@@H](CO)O[C@H]3n3ccc(=O)[nH]c3=O)nn2)[C@]2(C)[C@H](C)CC[C@]3(CCC(=O)[C@@H]32)[C@@H](C)[C@@H]1O	0.61	0.18	0.74	0.35
C=C[C@]1(C)C[C@@H](OC(=O)Cn2cc(CO[C@@H]3[C@H](O)[C@@H](CO)O[C@H]3n3ccc(=O)[nH]c3=O)nn2)[C@]2(C)[C@H](C)CC[C@]3(CCC(=O)[C@@H]32)[C@@H](C)[C@@H]1O	0.54	0.14	0.72	0.29
C=C[C@]1(C)C[C@@H](OC(=O)Cn2cc([C@]3(O)[C@@H](CO)O[C@@H](n4ccc(=O)[nH]c4=O)[C@@H]3O)nn2)[C@]2(C)[C@H](C)CC[C@]3(CCC(=O)[C@@H]32)[C@@H](C)[C@@H]1O	0.24	0.03	0.45	0.18
C=C[C@]1(C)C[C@@H](OC(=O)Cn2cc(CCCc3ccccc3)nn2)[C@]2(C)[C@H](C)CC[C@]3(CCC(=O)[C@@H]32)[C@@H](C)[C@@H]1O	0.21	0.08	0.48	0.41
C=C[C@]1(C)C[C@@H](OC(=O)Cn2cc(Cn3cnc4c(N)ncnc43)nn2)[C@]2(C)[C@H](C)CC[C@]3(CCC(=O)[C@@H]32)[C@@H](C)[C@@H]1O	0.73	0.19	0.73	0.37
C=C[C@]1(C)C[C@@H](OC(=O)Cn2cc(Cc3ccccc3)nn2)[C@]2(C)[C@H](C)CC[C@]3(CCC(=O)[C@@H]32)[C@@H](C)[C@@H]1O	0.31	0.06	0.54	0.29
C=C[C@]1(C)C[C@@H](OC(=O)Cn2cc([C@@H](O)[C@@H]3O[C@H](n4cc(C)c(=O)[nH]c4=O)C[C@H]3O)nn2)[C@]2(C)[C@H](C)CC[C@]3(CCC(=O)[C@@H]32)[C@@H](C)[C@@H]1O (mixture of isomers)	0.38	0.1	0.5	0.25
C=C[C@]1(C)C[C@@H](OC(=O)Cn2cc(CCc3ccccc3)nn2)[C@]2(C)[C@H](C)CC[C@]3(CCC(=O)[C@@H]32)[C@@H](C)[C@@H]1O	0.29	0.05	0.61	0.35
C=C[C@]1(C)C[C@@H](OC(=O)Cn2cc(CCn3cnc4c(N)ncnc43)nn2)[C@]2(C)[C@H](C)CC[C@]3(CCC(=O)[C@@H]32)[C@@H](C)[C@@H]1O	0.37	0.1	0.4	0.26
C=C[C@]1(C)C[C@@H](OC(=O)Cn2cc(C[C@@H](O)[C@@H]3O[C@H](n4cc(C)c(=O)[nH]c4=O)C[C@H]3O)nn2)[C@]2(C)[C@H](C)CC[C@]3(CCC(=O)[C@@H]32)[C@@H](C)[C@@H]1O	0.32	0.09	0.59	0.29
C=C[C@]1(C)C[C@@H](OC(=O)Cn2cc(Cn3ccc(N)nc3=O)nn2)[C@]2(C)[C@H](C)CC[C@]3(CCC(=O)[C@@H]32)[C@@H](C)[C@@H]1O	0.61	0.16	0.69	0.38
C=C[C@]1(C)C[C@@H](OC(=O)Cn2cc(C[C@H](O)[C@@H]3O[C@H](n4cc(C)c(=O)[nH]c4=O)C[C@H]3O)nn2)[C@]2(C)[C@H](C)CC[C@]3(CCC(=O)[C@@H]32)[C@@H](C)[C@@H]1O	0.33	0.09	0.69	0.35

Second part, the molecule after the results:

Activity (Escherichia coli [1])	Activity (Escherichia coli [2])	Activity (Escherichia coli [3])	Activity (Escherichia coli [4])	SMILES
0.62	0.19	0.93	0.36	C=C[C@]1(C)C[C@@H](OC(=O)Cn2cc(COC[C@H]3O[C@@H](n4cc(C)c(=O)[nH]c4=O)C[C@@H]3O)nn2)[C@]2(C)[C@H](C)CC[C@]3(CCC(=O)[C@@H]32)[C@@H](C)[C@@H]1O
0.44	0.12	0.73	0.41	C=C[C@]1(C)C[C@@H](OC(=O)Cn2cc(CO[C@@H]3C[C@@H](n4cc(C)c(=O)[nH]c4=O)O[C@H]3CO)nn2)[C@]2(C)[C@H](C)CC[C@]3(CCC(=O)[C@@H]32)[C@@H](C)[C@@H]1O
0.41	0.08	0.46	0.24	C=C[C@]1(C)C[C@@H](OC(=O)Cn2cc(CCCn3cc(C)c(=O)[nH]c3=O)nn2)[C@]2(C)[C@H](C)CC[C@]3(CCC(=O)[C@@H]32)[C@@H](C)[C@@H]1O
0.27	0.05	0.56	0.26	C=C[C@]1(C)C[C@@H](OC(=O)Cn2cc(CCCn3ccc(N)nc3=O)nn2)[C@]2(C)[C@H](C)CC[C@]3(CCC(=O)[C@@H]32)[C@@H](C)[C@@H]1O
0.69	0.18	0.75	0.37	C=C[C@]1(C)C[C@@H](OC(=O)Cn2cc(Cn3cc(C)c(=O)[nH]c3=O)nn2)[C@]2(C)[C@H](C)CC[C@]3(CCC(=O)[C@@H]32)[C@@H](C)[C@@H]1O
0.53	0.1	0.57	0.36	C=C[C@]1(C)C[C@@H](OC(=O)Cn2cc(CCn3cc(C)c(=O)[nH]c3=O)nn2)[C@]2(C)[C@H](C)CC[C@]3(CCC(=O)[C@@H]32)[C@@H](C)[C@@H]1O
